These results are taken from patent publication US10590129B2 (Incozen Therapeutics Pvt. Ltd., priority 2010, dated 2020).

Where only a bound is given, the exact number is not on record here.

The subject of one data set is MKN-45 cells. The experiment in a line: Inhibition of MKN-45 proliferation (MTT). The class given is cell-based, human. As to conditions: for inhibition at 0.1 µM / inhibition at 1 µM / GI50: Homo sapiens, MKN-45, MKN-45 proliferation. In outline: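 Viability measured by MTT dye reduction on day 5 after compound addition on day 2 to MKN-45 gastric adenocarcinoma cells (high Met expression) seeded on day 1 in complete medium.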

The compound `CC(C)(c1ccc2ncccc2c1)n1nnc2ccc(-c3ccc(C(=O)NC4CC4)c(F)c3)nc21` [Ex 106, N-Cyclopropyl-2-fluoro-4-(3-(2-(quinolin-6-yl)propan-2-yl)-3H-[1,2,3]triazolo[4,5-b]pyridin-5-yl)benzamide] came in with a melting point of 156 to 159 °C. For the same compound, the inhibition at 0.1 µM in the data set on MKN-45 cells (0.1 μM) is < 25%. The same compound displayed an inhibition at 1 µM with MKN-45 cells (1 μM) of 75 to 100%.

With `CCNC(=O)c1ccc(-c2ccc3nnn(C(C)(C)c4ccc5ncccc5c4)c3n2)cc1F` [Ex 107, N-Ethyl-2-fluoro-4-(3-(2-(quinolin-6-yl)propan-2-yl)-3H-[1,2,3]triazolo[4,5-b]pyridin-5-yl)benzamide], the melting point is 132 to 135 °C. The inhibition at 0.1 µM with MKN-45 cells (0.1 μM) was < 25%.

Consider `CNC(=O)c1ccc(-c2ccc3nnn(Cc4ccc5ncccc5c4)c3n2)cc1Cl` [Ex 109, 2-Chloro-N-methyl-4-(3-(quinolin-6-ylmethyl)-3H-[1,2,3]triazolo[4,5-b]pyridin-5-yl)benzamide], for which the melting point was 227 to 230 °C. In addition, the inhibition at 0.1 µM in the data set with MKN-45 cells (0.1 μM) lay in the range of 75 to 100%.

As to `CONC(=O)c1ccc(-c2ccc3nnn(Cc4ccc5ncccc5c4)c3n2)cc1F.Cl` [Ex 110, 2-Fluoro-N-methoxy-4-(3-(quinolin-6-ylmethyl)-3H-[1,2,3]triazolo[4,5-b]pyridin-5-yl)benzamide hydrochloride], the melting point is 145 to 147 °C. In addition, the “Inhibition (% Inhibition of MKN-45 proliferation)” value with MKN-45 cells (MKN-45 proliferation, 0.1 μM) is listed as “B (B = ≥50-<75%)”. In addition, the “% inhibition @ 1 uM” value in the data set on MKN-45 cells (MKN-45 proliferation, 1 μM) is reported as “B (B = ≥50-<75%)”.

The compound `O=C(Nc1nccs1)c1ccc(-c2ccc3nnn(Cc4ccc5ncccc5c4)c3n2)cc1F` [Ex 111, 2-Fluoro-4-(3-(quinolin-6-ylmethyl)-3H-[1,2,3]triazolo[4,5-b]pyridin-5-yl)-N-(thiazol-2-yl)benzamide] had a melting point of 204 to 206 °C. In addition, in the data set on MKN-45 cells (0.1 μM), the inhibition at 0.1 µM is < 25%. The compound also came in with an inhibition at 1 µM in the data set with MKN-45 cells (1 μM) of 75 to 100%.

`O=C(NCCC(=O)N1CCCC1)c1ccc(-c2ccc3nnn(Cc4ccc5ncccc5c4)c3n2)cc1F` [Ex 114, 2-Fluoro-N-(3-oxo-3-(pyrrolidin-1-yl)propyl)-4-(3-(quinolin-6-ylmethyl)-3H-[1,2,3]triazolo[4,5-b]pyridin-5-yl)benzamide] came in with a melting point of 151 to 153 °C. The compound further showed an inhibition at 0.1 µM with MKN-45 cells (0.1 μM) of 50 to 75%. Besides, in the data set with MKN-45 cells (1 μM), the inhibition at 1 µM was in the range of 50 to 75%.

Compound `O=C(NO)c1ccc(-c2ccc3nnn(Cc4ccc5ncccc5c4)c3n2)cc1F` [Ex 115, 2-Fluoro-N-hydroxy-4-(3-(quinolin-6-ylmethyl)-3H-[1,2,3]triazolo[4,5-b]pyridin-5-yl)benzamide] had a melting point of 180 to 182 °C. The inhibition at 0.1 µM in the data set with MKN-45 cells (0.1 μM) was < 25%. The same compound came in with an inhibition at 1 µM with MKN-45 cells (1 μM) of 75 to 100%.

Take `CC(C)NC(=O)c1ccc(-c2ccc3nnn(Cc4ccc5ncccc5c4)c3n2)cc1` [Ex 116, N-Isopropyl-4-(3-(quinolin-6-ylmethyl)-3H-[1,2,3]triazolo[4,5-b]pyridin-5-yl)benzamide]: the melting point was in the range of 181 to 183 °C. Moreover, the inhibition at 0.1 µM in the data set on MKN-45 cells (0.1 μM) is < 25%. Besides, the inhibition at 1 µM in the data set with MKN-45 cells (1 μM) lay in the range of 75 to 100%.

Turning to `O=C(NCCC(=O)N1CCCCC1)c1ccc(-c2ccc3nnn(Cc4ccc5ncccc5c4)c3n2)cc1F` [Ex 117, 2-Fluoro-N-(3-oxo-3-(piperidin-1-yl)propyl)-4-(3-(quinolin-6-ylmethyl)-3H-[1,2,3]triazolo[4,5-b]pyridin-5-yl)benzamide], the melting point was 109 to 111 °C. In the data set on MKN-45 cells (0.1 μM), this compound came in with an inhibition at 0.1 µM of 50 to 75%. Also, the inhibition at 1 µM in the data set with MKN-45 cells (1 μM) lay within 75 to 100%.

For `CCNC(=O)Nc1ccc(-c2ccc3nnn(Cc4ccc5ncccc5c4)c3n2)cc1` [Ex 118, 1-Ethyl-3-(4-(3-(quinolin-6-ylmethyl)-3H-[1,2,3]triazolo[4,5-b]pyridin-5-yl)phenyl)urea], the melting point was 193 to 196 °C. For the same compound, in the data set on MKN-45 cells (0.1 μM), the inhibition at 0.1 µM was < 25%. Moreover, the inhibition at 1 µM in the data set with MKN-45 cells (1 μM) fell in the range of 75 to 100%.

With `O=C(NCCC(=O)N1CCOCC1)c1ccc(-c2ccc3nnn(Cc4ccc5ncccc5c4)c3n2)cc1F` [Ex 120, 2-Fluoro-N-(3-morpholino-3-oxopropyl)-4-(3-(quinolin-6-ylmethyl)-3H-[1,2,3]triazolo[4,5-b]pyridin-5-yl)benzamide], the melting point was in the range of 212 to 215 °C. Also, the inhibition at 0.1 µM with MKN-45 cells (0.1 μM) fell in the range of 75 to 100%. In addition, the inhibition at 1 µM with MKN-45 cells (1 μM) was in the range of 25 to 50%.

Compound `O=C(Nc1nc[nH]n1)c1ccc(-c2ccc3nnn(Cc4ccc5ncccc5c4)c3n2)cc1Cl` [Ex 122, 2-chloro-4-(3-(quinolin-6-ylmethyl)-3H-[1,2,3]triazolo[4,5-b]pyridin-5-yl)-N-(1H-1,2,4-triazol-3-yl)benzamide] showed a melting point of 286 to 288 °C. Moreover, the inhibition at 0.1 µM in the data set with MKN-45 cells (0.1 μM) is < 25%. The inhibition at 1 µM with MKN-45 cells (1 μM) was < 25%.

In the case of `O=C(NCCCN1CCCCC1)c1ccc(-c2ccc3nnn(Cc4ccc5ncccc5c4)c3n2)cc1F` [Ex 124, 2-Fluoro-N-(3-(piperidin-1-yl)propyl)-4-(3-(quinolin-6-ylmethyl)-3H-[1,2,3]triazolo[4,5-b]pyridin-5-yl)benzamide], the melting point was in the range of 135 to 137 °C. The compound further had an inhibition at 0.1 µM with MKN-45 cells (0.1 μM) of 75 to 100%. Besides, the inhibition at 1 µM in the data set with MKN-45 cells (1 μM) lay within 50 to 75%.

Turning to `c1cnc2ccc(Cn3cnc4ccc(-c5cn[nH]c5)nc43)cc2c1` [Ex 147, 6-((5-(1H-Pyrazol-4-yl)-3H-imidazo[4,5-b]pyridin-3-yl)methyl)quinoline], the melting point was in the range of 214 to 216 °C. In the data set on MKN-45 cells (1 μM), the inhibition at 1 µM is < 25%.

The compound `Cn1cc(-c2ccc3ncn(Cc4ccc5ncccc5c4)c3n2)cn1` [Ex 148, 6-((5-(1-Methyl-1H-pyrazol-4-yl)-3H-imidazo[4,5-b]pyridin-3-yl)methyl)quinoline] returned a melting point of 150 to 152 °C. The inhibition at 1 µM with MKN-45 cells (1 μM) was < 25%.

In the case of `OCCn1cc(-c2ccc3ncn(Cc4ccc5ncccc5c4)c3n2)cn1` [Ex 150, 2-(4-(3-(Quinolin-6-ylmethyl)-3H-imidazo[4,5-b]pyridin-5-yl)-1H-pyrazol-1-yl)ethanol], the melting point was in the range of 160 to 163 °C. In the data set with MKN-45 cells (1 μM), the inhibition at 1 µM was < 25%.

In the case of `OCCNc1ccc2nnn(Cc3ccc4ncccc4c3)c2n1` [Ex 151, 2-(3-(Quinolin-6-ylmethyl)-3H-[1,2,3]triazolo[4,5-b]pyridin-5-ylamino)ethanol], the melting point is 184 to 186 °C. This compound displayed an inhibition at 1 µM in the data set with MKN-45 cells (1 μM) of 50 to 75%.

The compound `c1cnc2ccc(Cn3nnc4ccc(-n5ccnc5)nc43)cc2c1` [Ex 152, 6-((5-(1H-Imidazol-1-yl)-3H-[1,2,3]triazolo[4,5-b]pyridin-3-yl)methyl)quinoline] registered a melting point of 227 to 230 °C. The compound further yielded a GI50 in the data set on MKN-45 cells of 150 to 500 nM.

As to `c1cnc2ccc(Cn3nnc4ccc(-c5cnn(C6CCNCC6)c5)nc43)cc2c1` [Ex 157, 6-((5-(1-(Piperidin-4-yl)-1H-pyrazol-4-yl)-3H-[1,2,3]triazolo[4,5-b]pyridin-3-yl)methyl)quinoline], the melting point lay in the range of 188 to 191 °C. For the same compound, the GI50 in the data set on MKN-45 cells is < 1000 nM.

In turn, `Cl.Fc1ccc(F)c(Cn2nnc3ccc(-c4cnn(C5CCNCC5)c4)nc32)c1Cl` [Ex 167, 3-(2-Chloro-3,6-difluorobenzyl)-5-(1-(piperidin-4-yl)-1H-pyrazol-4-yl)-3H-[1,2,3]triazolo[4,5-b]pyridine hydrochloride] came in with a melting point of 85 to 87 °C. The same compound gave an inhibition at 1 µM with MKN-45 cells (1 μM) of 25 to 50%.

`Nc1ncc(-c2ccc3nnn(Cc4ccc5ncccc5c4)c3n2)cn1` [Ex 180, 5-(3-(Quinolin-6-ylmethyl)-3H-[1,2,3]triazolo[4,5-b]pyridin-5-yl)pyrimidin-2-amine] showed a melting point of 244 to 246 °C. Also, in the data set with MKN-45 cells (0.1 μM), the inhibition at 0.1 µM was < 25%. The inhibition at 1 µM with MKN-45 cells (1 μM) lay within 25 to 50%.

In turn, `O=Cc1cc(-c2ccc3nnn(Cc4ccc5ncccc5c4)c3n2)cs1` [Ex 182, 4-(3-(Quinolin-6-ylmethyl)-3H-[1,2,3]triazolo[4,5-b]pyridin-5-yl)thiophene-2-carbaldehyde] gave a melting point of 195 to 197 °C. The inhibition at 0.1 µM in the data set on MKN-45 cells (0.1 μM) is < 25%. Moreover, the inhibition at 1 µM in the data set on MKN-45 cells (1 μM) lay in the range of 25 to 50%.

Turning to `COc1ncc(-c2ccc3nnn(Cc4ccc5ncccc5c4)c3n2)cn1` [Ex 183, 6-((5-(2-Methoxypyrimidin-5-yl)-3H-[1,2,3]triazolo[4,5-b]pyridin-3-yl)methyl)quinoline], the melting point lay within 201 to 203 °C. Moreover, the inhibition at 0.1 µM in the data set with MKN-45 cells (0.1 μM) is < 25%.

Regarding `c1cnc2ccc(Cn3nnc4ccc(-c5ccc6c(c5)OCO6)nc43)cc2c1` [Ex 184, 6-((5-(Benzo[d][1,3]dioxol-5-yl)-3H-[1,2,3]triazolo[4,5-b]pyridin-3-yl)methyl)quinoline], the melting point is 179 to 181 °C. For the same compound, the inhibition at 0.1 µM in the data set on MKN-45 cells (0.1 μM) is < 25%. The inhibition at 1 µM with MKN-45 cells (1 μM) is < 25%.

On to `c1cnc2ccc(Cn3nnc4ccc(-c5ccc6c(c5)CCO6)nc43)cc2c1` [Ex 185, 6-((5-(2,3-Dihydrobenzofuran-5-yl)-3H-[1,2,3]triazolo[4,5-b]pyridin-3-yl)methyl) quinoline], for which the melting point was in the range of 131 to 133 °C. In the data set with MKN-45 cells (0.1 μM), the inhibition at 0.1 µM is < 25%. The inhibition at 1 µM in the data set with MKN-45 cells (1 μM) is < 25%.

`Nc1ccc(-c2ccc3nnn(Cc4ccc5ncccc5c4)c3n2)cn1` [Ex 186, 5-(3-(Quinolin-6-ylmethyl)-3H-[1,2,3]triazolo[4,5-b]pyridin-5-yl)pyridin-2-amine]: the melting point was 194 to 197 °C. Further, in the data set with MKN-45 cells (0.1 μM), the inhibition at 0.1 µM is < 25%. In addition, the inhibition at 1 µM in the data set on MKN-45 cells (1 μM) was < 25%.

The compound `FCCn1cc(-c2ccc3nnn(Cc4ccc5ncccc5c4)c3n2)cn1` [Ex 187, 6-((5-(1-(2-fluoroethyl)-1H-pyrazol-4-yl)-3H-[1,2,3]triazolo[4,5-b]pyridin-3-yl)methyl)quinoline] displayed a melting point of 168 to 170 °C. Also, in the data set with MKN-45 cells, the GI50 was ≤ 50 nM. This compound registered an inhibition at 0.1 µM in the data set with MKN-45 cells (0.1 μM) of 75 to 100%.
